Results on 15 molecules are retold here after US5854282A, “3-benzoyl benzofuran derivatives as thyroid hormone antagonists” (Karo Bio AB, priority 1994, dated 1998).

Each structure is given as a SMILES string.

The target of assay [1] is T1, human thyroid hormone receptor β1 (ThRβ1) (Homo sapiens, UniProt P10828).
T1 sequence (P10828 1-461): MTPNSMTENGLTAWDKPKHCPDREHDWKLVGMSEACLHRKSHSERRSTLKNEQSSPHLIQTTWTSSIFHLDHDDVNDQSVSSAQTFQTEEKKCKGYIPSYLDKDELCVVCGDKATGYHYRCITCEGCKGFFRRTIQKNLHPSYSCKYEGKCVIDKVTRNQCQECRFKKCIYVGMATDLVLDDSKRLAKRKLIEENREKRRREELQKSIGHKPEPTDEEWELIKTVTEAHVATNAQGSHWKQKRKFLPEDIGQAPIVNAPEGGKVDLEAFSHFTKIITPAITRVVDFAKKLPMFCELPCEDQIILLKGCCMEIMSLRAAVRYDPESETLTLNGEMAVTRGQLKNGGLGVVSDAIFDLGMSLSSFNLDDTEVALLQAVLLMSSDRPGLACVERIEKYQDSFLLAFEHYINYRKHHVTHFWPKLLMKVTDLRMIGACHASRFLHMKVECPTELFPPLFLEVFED
As to the kind of experiment: Competition with 125I-T3 for binding to human thyroid hormone receptor β1 (ThRβ1). The following applies: competition with 0.2 nM 125I-T3. As for the experimental part: (§1) A series of dilutions of each compound produced (Examples 1-15) were allowed to compete with a fixed concentration (0.2 nM) of ^125 I-T3 for binding to the human thyroid hormone receptor β1 (ThRβ1). In some examples, binding to the human thyroid hormone receptor α1 (ThRα1) was included.
(§2) After reaching equilibrium a separation step on Sephadex-G25 columns was introduced whereby the receptors were separated from compounds of low molecular weight (i.e the radioactive labeled hormones). The eluated receptor bound radioactivity was measured in a gamma-counter or with regular liquid scintillation counting.
(§3) An IC50 -value (The concentration of compound required to inhibit 50% of the binding of radioactive labeled hormone) was calculated from the curves.

Assay [2] has as its target T2, human thyroid hormone receptor α (Homo sapiens, UniProt P10827).
T2 sequence (P10827 1-370): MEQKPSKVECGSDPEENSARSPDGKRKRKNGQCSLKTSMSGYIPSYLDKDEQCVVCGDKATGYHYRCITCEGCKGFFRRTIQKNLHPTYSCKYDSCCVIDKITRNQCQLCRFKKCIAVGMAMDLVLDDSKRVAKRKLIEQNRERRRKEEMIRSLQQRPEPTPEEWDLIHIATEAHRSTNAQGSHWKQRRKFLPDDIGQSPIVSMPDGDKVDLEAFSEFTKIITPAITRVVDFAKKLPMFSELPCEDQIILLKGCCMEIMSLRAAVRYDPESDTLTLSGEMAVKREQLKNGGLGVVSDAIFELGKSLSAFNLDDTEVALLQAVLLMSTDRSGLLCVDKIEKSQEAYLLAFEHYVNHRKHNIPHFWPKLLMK
As to the kind of experiment: ALP reporter gene activity in TRAF α thyroid hormone reporter cells (agonism/antagonism ± T3). It is filed as cell-based. To be noted: for antagonism to T3 in the ThRα reporter cell line / augmention of the agonism of T3 in the ThRα reporter cell line: in the presence of 1 nM T3; for partial agonist/antagonist activity in the ThRα reporter cell line: ±1 nM T3. As for the experimental part:
(§4) The biological activity of compounds in accordance with the invention was tested in thyroid hormone responsive reporter cell lines.
(§5) The thyroid hormone reporter cell lines (TRAF α and TRAF β) are genetically engineered, mammalian cell lines expressing thyroid hormone receptor (ThR) α and β, respectively. These thyroid hormone responding cell lines contain stable integrated artificial transcription units comprised of a thyroid hormone response element (TRE) and core promoter sequences fused to a downstream reporter gene encoding a secreted form of alkaline phosphatase (ALP).
(§6) In the absence of thyroid hormone the cells express only very low levels of the ALP reporter protein. […] The level of thyroid hormone dependent ALP protein expressed can be determined indirectly by an enzymatic chemiluminescence assay as previously described (Advances in Steroid Analysis '93, editor: Gorog S., Proceedings of the 5th Symposium on the analysis of Steroids, Published by Akademiai Kiado, Budapest, Hungary, p. 57-67). Briefly, an aliquot of the conditioned cell culture medium is mixed with AMPPD (disodium 3-4-methoxyspiro(1,2-dioxetane-3,2'-tricyclo(3,3.1)decan)-4-yl) phenyl phosphate containing assay buffer and incubated at 37° C. for 20 minutes. AMPPD was purchased from Boule Diagnostic, Sweden. The ALP in the medium sample dephosphorylates AMPPD generating an unstable intermediate which decomposes and emits light which is measured in a microplate format luminometer (Luminoskan, Labsystems, Finland). The rate of light emission is directly proportional to the level of ALP present in the sample.
The TRAF α and β cells, respectively, were seeded at a density of 2-2.5×10^4 cells/well in 96-well microtiterplates (suitable for growth of mammalian cells). The cells were seeded in Coon's medium (without phenolred) (SVA, Uppsala, Sweden)+10% FCS (Gibco-BRL) (hormone stripped) and cultivated overnight at 37° C. and 5% CO2 in a humidified incubator.
The cells were then cultivated at 37° C. and 5% CO2 in a humidified incubator for an additional 48 hours.
48 hours post addition of the hormonal/test compounds, cell number and cell morphology were examined under the light-microscope. A 10 μl aliquot of conditioned medium from each well was then transferred to white microtiterplates and assayed for the level of ALP reporter protein expressed (as described in Advances in Steroid Analysis '93 above). In addition, the cell toxic effect of compounds was determined by the colorimetric MTS/PMS assay according to the suppliers recommendation (Promega Corp. through Scandinavian Diagnostic Services, Sweden)
Hormone/test compounds added to the TRAF α and β reporter cells, respectively, per well in 96-well microtiter plates
For orientation: In a reporter assay the amount or activity of a reporter protein is the signal.

Assay [3] deals with T3, human thyroid hormone receptor α1 (ThRα1) (Homo sapiens, UniProt P10827).
T3 sequence (P10827 1-410 isoform P10827-2): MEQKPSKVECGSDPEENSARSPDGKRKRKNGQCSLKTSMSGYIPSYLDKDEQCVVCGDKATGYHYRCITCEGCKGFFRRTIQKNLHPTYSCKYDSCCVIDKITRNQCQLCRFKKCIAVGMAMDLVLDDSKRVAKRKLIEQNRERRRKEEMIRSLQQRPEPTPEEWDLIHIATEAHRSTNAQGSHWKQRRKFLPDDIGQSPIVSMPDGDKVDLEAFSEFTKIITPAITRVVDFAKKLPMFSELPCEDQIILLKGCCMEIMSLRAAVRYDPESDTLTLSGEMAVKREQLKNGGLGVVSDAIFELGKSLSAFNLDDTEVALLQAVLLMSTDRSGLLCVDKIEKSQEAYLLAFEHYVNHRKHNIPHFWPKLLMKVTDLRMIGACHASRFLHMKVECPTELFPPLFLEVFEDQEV
The assay can be described thus: Competition with 125I-T3 for binding to human thyroid hormone receptor α1 (ThRα1). To be noted: competition with 0.2 nM 125I-T3. As for the experimental part: as §1, §2, §3

In assay [4] the target is T4, human thyroid hormone receptor β (Homo sapiens, UniProt P10828).
T4 sequence (P10828 1-461): T1 sequence (P10828 1-461)
As to the kind of experiment: ALP reporter gene activity in TRAF β thyroid hormone reporter cells (agonism/antagonism ± T3). It is filed as cell-based. The following applies: for antagonist activity in the ThRβ reporter cell line: in the presence of 1 nM T3. As for the experimental part: as §4, §5, §6
The TRAF α and β cells, respectively, were seeded at a density of 2-2.5×10^4 cells/well in 96-well microtiterplates (suitable for growth of mammalian cells). […]
48 hours post addition of the hormonal/test compounds, cell number and cell morphology were examined under the light-microscope. […] In addition, the cell toxic effect of compounds was determined by the colorimetric MTS/PMS assay according to the suppliers recommendation (Promega Corp. through Scandinavian Diagnostic Services, Sweden) […]

One may read the IC50 as the midpoint of a concentration-inhibition curve. Turning to `CC(C)c1oc2ccc(NS(=O)(=O)C(F)(F)F)cc2c1Cc1cc(I)c(OCC(=O)O)c(I)c1` [Example 5, 2-Isopropyl-3-(3,5-diiodo-4-carboxymethoxybenzyl)-5-trifluoromethylsulphonamidobenzofuran], in assay [1], the IC50 is 7.94 µM. For the same molecule, in assay [2], the “antagonism to T3 in the ThRα reporter cell line” value (“antagonism to T3” for short) was “no antagonism to T3” and the “augmention of the agonism of T3 in the ThRα reporter cell line” value (shortened to “augmention of the agonism of T3”) is “concentration dependent augmention of the agonism of T3”.

Take `CCCCc1oc2ccc(NC(=O)C(C)C)cc2c1C(=O)c1cc(I)c(OCC(=O)O)c(I)c1` [Example 2]: the IC50 in assay [1] was 6.61 µM. Moreover, in assay [2], the “antagonism to T3” value is “no antagonism to T3” and the “augmention of the agonism of T3” value was “concentration dependent augmention of the agonism of T3”.

As for `CCCCc1oc2ccc(NC(=O)c3ccc(OC)cc3)cc2c1C(=O)c1cc(I)c(OCC(=O)O)c(I)c1` [Example 3, 2-n-Butyl-3-(3,5-diiodo-4-carboxymethoxybenzoyl)-5-(4-methoxybenzamido)benzofuran], the IC50 in assay [1] is 1.51 µM.

On to `COc1ccc(C(=O)Nc2ccc3oc(C(C)C)c(C(=O)c4cc(Br)c(OCC(=O)O)c(Br)c4)c3c2)cc1` [Example 14, 2-Isopropyl-3-(3,5-dibromo-4-carboxymethoxybenzoyl)-5-(4-methoxybenzamido)benzofuran], for which the IC50 is 3.47 µM in assay [1] and 3.63 µM in assay [3]. Further, in assay [2], the “partial agonist/antagonist activity in the ThRα reporter cell line” value is given as “partial agonist/antagonist activity”. In addition, the “antagonist activity in the ThRβ reporter cell line” value in assay [4] is listed as “no or only weak antagonist activity”.

In the case of `CC(C)c1oc2ccc(NS(=O)(=O)C(F)(F)F)cc2c1C(=O)c1cc(I)c(OCC(=O)O)c(I)c1` [Example 6, 2-isopropyl-3-(3,5-diiodo-4-carboxymethoxybenzoyl)-5-trifluoromethylsulphonamidobenzofuran], in assay [1], the IC50 was 3.72 µM.

On to `CCCCc1oc2ccc(NS(=O)(=O)C(F)(F)F)cc2c1C(=O)c1cc(I)c(OCC(=O)O)c(I)c1` [Example 1, 2-n-Butyl-3(3,5-diiodo-4-carboxymethoxybenzoyl)-5-trifluoromethylsulphonamidobenzofuran], for which the IC50 in assay [1] is 2.24 µM. For the same molecule, in assay [2], the “antagonism to T3” value was “no antagonism to T3” and the “augmention of the agonism of T3” value is on record as “concentration dependent augmention of the agonism of T3”.

As for `CCCCc1oc2ccc(NC(=O)c3ccc(O)cc3)cc2c1C(=O)c1cc(Br)c(OCC(=O)O)c(Br)c1` [Example 13, 2-n-Butyl-3-(3,5-dibromo-4-carboxymethoxybenzoyl)-5-(4-hydroxybenzamido)benzofuran], the IC50 is 2.4 µM in assay [1] and 2.57 µM in assay [3].

On to `CCCCc1oc2ccc(NC(=O)Nc3ccc(O)cc3)cc2c1C(=O)c1cc(I)c(OCC(=O)O)c(I)c1` [Example 12, 2-n-Butyl-3-(3,5-diiodo-4-carboxymethoxybenzoyl)-5-(4-hydroxyphenylureido)benzofuran], for which the IC50 in assay [1] is 1.26 µM; in assay [3], 1.82 µM.

Regarding `CCCCc1oc2ccc(NC(=O)c3ccc(O)cc3)cc2c1C(=O)c1cc(I)c(OCC(=O)O)c(I)c1` [Example 4, 2-n-Butyl-3-(3,5-diiodo-4-carboxymethoxybenzoyl)-5-(4-hydroxybenzamido)benzofuran], the IC50 in assay [1] was 2.04 µM; in assay [3] it was 2.51 µM.

`CC(C)c1oc2ccc(NC(=O)c3ccc(O)cc3)cc2c1C(=O)c1cc(Br)c(OCC(=O)O)c(Br)c1` [Example 15, 2-Isopropyl-3-(3,5-dibromo-4-carboxymethoxybenzoyl)-5-(4-hydroxybenzamido)benzofuran]: the IC50 in assay [1] is 3.31 µM; in assay [3], 3.09 µM. In addition, the “partial agonist/antagonist activity in the ThRα reporter cell line” value in assay [2] was “partial agonist/antagonist activity”. The “antagonist activity in the ThRβ reporter cell line” value in assay [4] is “no or only weak antagonist activity”.

On to `CC(C)c1oc2ccc(NC(=O)c3ccc(O)cc3)cc2c1C(=O)c1cc(I)c(OCC(=O)O)c(I)c1` [Example 8, 2-Isopropyl-3-(3,5-diiodo-4-carboxymethoxybenzoyl)-5-(4-hydroxybenzamido)benzofuran], for which, in assay [1], the IC50 was 1.82 µM.

As for `CCCCc1oc2ccc(NC(=O)c3ccc(F)cc3)cc2c1C(=O)c1cc(I)c(OCC(=O)O)c(I)c1` [Example 9, 2-n-Butyl-3-(3,5-diiodo-4-carboxymethoxybenzoyl)-5-(4-fluorobenzamido)benzofuran], the results for the IC50 in assay [1] and in assay [3] were 3.55 µM and 3.31 µM, respectively.

Take `CC(C)c1oc2ccc(NC(=O)c3ccc([N+](=O)[O-])cc3)cc2c1C(=O)c1cc(I)c(OCC(=O)O)c(I)c1` [Example 10, 2-Isopropyl-3-(3,5-diiodo-4-carboxymethoxybenzoyl)-5-(4-nitrobenzamido)benzofuran]: the IC50 in assay [1] was 4.27 µM.

Regarding `CCCCc1oc2ccc(NC(=O)Nc3ccc(OC)cc3)cc2c1C(=O)c1cc(I)c(OCC(=O)O)c(I)c1` [Example 11, 2-n-Butyl-3-(3,5-diiodo-4-carboxymethoxybenzoyl)-5-(4-methoxyphenylureido)benzofuran], the half-inhibitory concentration (IC50) is 3.72 µM in assay [1] and 3.24 µM in assay [3]. In assay [2], the “partial agonist/antagonist activity in the ThRα reporter cell line” value is reported as “partial agonist/antagonist activity”. The “partial agonist/antagonist activity in the ThRβ reporter cell line” value in assay [4] (±1 nM T3) was “partial agonist/antagonist activity”.

Take `COc1ccc(C(=O)Nc2ccc3oc(C(C)C)c(C(=O)c4cc(I)c(OCC(=O)O)c(I)c4)c3c2)cc1` [Example 7, 2-Isopropyl-3-(3,5-diiodo-4-carboxymethoxybenzoyl)-5-(4-methoxybenzamido)benzofuran]: the IC50 in assay [1] was 3.63 µM.
